A short description of series [1]: Apparent permeability across apical to basolateral side in human Caco2 cells in presence of 0.1% bovine serum albumin. Particulars: Caco-2.
Series [2] in a line: Apparent permeability across basolateral to apical side in human Caco2 cells in presence of 0.1% bovine serum albumin. Particulars: Caco-2.
Series [3] can be described thus: Ratio of apparent permeability across apical to basolateral over basolateral to apical side in human Caco2 cells in presence of 0.1% bovine serum albumin. Type of series: ADME, cell-based. The following applies: Caco-2.
For series [4], the target named is Kappa-type opioid receptor (Homo sapiens) (UniProt P41145). The series is described as follows: Inhibition of KOR (unknown origin) at 10 uM relative to control.
Kappa-type opioid receptor (Homo sapiens), sequence (P41145 whole entry): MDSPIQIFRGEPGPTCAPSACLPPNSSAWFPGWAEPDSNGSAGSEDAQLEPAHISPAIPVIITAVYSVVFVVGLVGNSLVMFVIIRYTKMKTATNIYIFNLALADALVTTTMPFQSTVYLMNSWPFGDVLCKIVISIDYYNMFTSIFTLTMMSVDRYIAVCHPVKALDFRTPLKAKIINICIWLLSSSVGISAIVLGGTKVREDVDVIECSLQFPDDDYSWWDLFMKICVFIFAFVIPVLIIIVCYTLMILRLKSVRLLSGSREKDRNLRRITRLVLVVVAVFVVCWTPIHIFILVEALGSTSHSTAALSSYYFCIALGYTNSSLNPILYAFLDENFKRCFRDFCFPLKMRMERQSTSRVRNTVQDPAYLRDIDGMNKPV
The target in series [5] is Adenosine receptor A1 (Homo sapiens) (UniProt P30542). The series is described as follows: Displacement of [3H]DPCPX from recombinant human adenosine A1 receptor expressed in CHO cells after 60 mins by scintillation counting analysis relative to control. Type of series: cell-based.
Adenosine receptor A1 (Homo sapiens), sequence (P30542 whole entry): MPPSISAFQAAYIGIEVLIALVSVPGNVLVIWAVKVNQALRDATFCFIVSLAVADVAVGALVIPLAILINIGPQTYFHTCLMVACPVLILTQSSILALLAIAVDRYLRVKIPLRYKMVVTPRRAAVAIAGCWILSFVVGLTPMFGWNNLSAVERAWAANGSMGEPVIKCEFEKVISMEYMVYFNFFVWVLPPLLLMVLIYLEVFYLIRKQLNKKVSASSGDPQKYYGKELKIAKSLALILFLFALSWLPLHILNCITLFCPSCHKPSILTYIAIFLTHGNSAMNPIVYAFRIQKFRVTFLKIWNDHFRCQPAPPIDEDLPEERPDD
In series [6] the target is Adenosine receptor A3 (Homo sapiens) (UniProt P0DMS8). The series is described as follows: Inhibition of recombinant human adenosine A3 receptor expressed in HEK293 cells by radioligand displacement assay relative to control. The following applies: concentration not given here. Type of series: cell-based.
Adenosine receptor A3 (Homo sapiens), sequence (P0DMS8 whole entry): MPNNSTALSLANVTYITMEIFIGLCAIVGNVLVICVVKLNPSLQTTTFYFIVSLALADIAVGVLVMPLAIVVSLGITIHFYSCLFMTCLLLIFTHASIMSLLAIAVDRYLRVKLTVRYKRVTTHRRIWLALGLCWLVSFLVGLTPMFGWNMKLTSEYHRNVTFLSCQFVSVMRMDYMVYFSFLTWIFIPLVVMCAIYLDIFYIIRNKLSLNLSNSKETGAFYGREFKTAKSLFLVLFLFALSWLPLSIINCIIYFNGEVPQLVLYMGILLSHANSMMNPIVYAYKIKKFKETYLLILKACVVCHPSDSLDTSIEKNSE
Series [7] addresses Translocator protein (Homo sapiens) (UniProt P30536). The series is described as follows: Inhibition of benzodiazepine receptor (unknown origin) by radioligand displacement assay relative to control. The following applies: concentration not given here.
Series [8] has as its target Gastrin/cholecystokinin type B receptor (Homo sapiens) (UniProt P32239). The series is described as follows: Inhibition of recombinant human CCK2 receptor expressed in CHO cells by radioligand displacement assay relative to control. The series is classed as cell-based. The following applies: concentration not given here.
Series [9] has as its target Prostaglandin E2 receptor EP4 subtype (Homo sapiens) (UniProt P35408). Kind of series: Inhibition of recombinant human prostanoid receptor EP4 expressed in HEK293 cells by radioligand displacement assay relative to control. Type of series: cell-based. The following applies: concentration not given here.
Series [10] is described as follows: Fraction unbound in rat plasma at 5 uM after 4 hrs by equilibrium dialysis method. Type of series: ADME, cell-free.
The nature of series [11]: Total systemic clearance in Sprague-Dawley rat at 1 mg/kg, iv by LC-MS/MS analysis. The series is classed as ADME, organism-based. Further details: dose 1 mg/kg, route intravenous. The following applies: in vivo.
Series [12] concerns Rattus norvegicus. Kind of series: Unbound AUC in Sprague-Dawley rat at 1 mg/kg, iv by LC-MS/MS analysis. The following applies: in vivo. Type of series: ADME, organism-based. Also on record: dose 1 mg/kg, route intravenous.
Series [13] has as its system Rattus norvegicus. Kind of series: Unbound AUC in Sprague-Dawley rat at 3 mg/kg, po by LC-MS/MS analysis. The series is classed as ADME, organism-based. Particulars: in vivo. Further details: dose 3 mg/kg, route oral.
Series [14] deals with Rattus norvegicus. The series is described as follows: Unbound Cmax in Sprague-Dawley rat at 3 mg/kg, po by LC-MS/MS analysis. The series is classed as ADME, organism-based. Further details: dose 3 mg/kg, route oral. Particulars: in vivo.
Series [15] in a line: Fraction unbound in rat brain at 5 uM after 4 hrs by equilibrium dialysis method. Type of series: ADME, tissue-based.
Series [16] in a line: in vivo. Particulars: Sprague-Dawley, rat, iv, 1 mg/kg.
Description: Volume of distribution at steady state in Sprague-Dawley rat at 1 mg/kg, iv by LC-MS/MS analysis
Series [17] in a line: in vivo. Particulars: Sprague-Dawley, rat, iv, 1 mg/kg. This is another data set of the same source.
Series [18] is described as follows: in vivo. The following applies: Sprague-Dawley, rat, po, 3 mg/kg.
The nature of series [19]: in vivo. Particulars: Sprague-Dawley, rat, po, 3 mg/kg. The source holds these as a separate data set.
The nature of series [20]: Lipophilicity, log D of the compound at pH 7.4. Type of series: physicochemical. Particulars: buffer, read-out: logD.
Series [21] is described as follows: Solubility of the compound in PBS buffer at pH 7.4 by shake-flask method. The series is classed as physicochemical.
In the next series the target is Cytochrome P450 3A4 (Homo sapiens, UniProt P08684). The series is described as follows: Inhibition of CYP3A4 (unknown origin) by luciferase reporter assay in presence of NADPH regeneration system. Type of series: ADME.
Cytochrome P450 3A4, sequence (P08684 whole entry): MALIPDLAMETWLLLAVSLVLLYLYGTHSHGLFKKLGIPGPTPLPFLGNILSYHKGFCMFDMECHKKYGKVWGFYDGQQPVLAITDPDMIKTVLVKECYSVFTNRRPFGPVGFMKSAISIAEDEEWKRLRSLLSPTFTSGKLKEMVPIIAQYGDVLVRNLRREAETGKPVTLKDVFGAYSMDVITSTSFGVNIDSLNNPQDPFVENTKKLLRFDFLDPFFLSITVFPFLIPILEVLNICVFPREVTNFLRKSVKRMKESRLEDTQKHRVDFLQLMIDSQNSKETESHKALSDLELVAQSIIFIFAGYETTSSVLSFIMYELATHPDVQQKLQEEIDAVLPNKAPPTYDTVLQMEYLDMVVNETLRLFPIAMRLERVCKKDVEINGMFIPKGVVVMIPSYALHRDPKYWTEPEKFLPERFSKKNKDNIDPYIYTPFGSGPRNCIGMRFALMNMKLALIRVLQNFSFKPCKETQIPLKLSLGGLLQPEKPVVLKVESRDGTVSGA
The target in the next series is Cytochrome P450 2D6 (Homo sapiens, UniProt P10635). Kind of series: Inhibition of CYP2D6 (unknown origin) by luciferase reporter assay in presence of NADPH regeneration system. Type of series: ADME.
Cytochrome P450 2D6, sequence (P10635 whole entry): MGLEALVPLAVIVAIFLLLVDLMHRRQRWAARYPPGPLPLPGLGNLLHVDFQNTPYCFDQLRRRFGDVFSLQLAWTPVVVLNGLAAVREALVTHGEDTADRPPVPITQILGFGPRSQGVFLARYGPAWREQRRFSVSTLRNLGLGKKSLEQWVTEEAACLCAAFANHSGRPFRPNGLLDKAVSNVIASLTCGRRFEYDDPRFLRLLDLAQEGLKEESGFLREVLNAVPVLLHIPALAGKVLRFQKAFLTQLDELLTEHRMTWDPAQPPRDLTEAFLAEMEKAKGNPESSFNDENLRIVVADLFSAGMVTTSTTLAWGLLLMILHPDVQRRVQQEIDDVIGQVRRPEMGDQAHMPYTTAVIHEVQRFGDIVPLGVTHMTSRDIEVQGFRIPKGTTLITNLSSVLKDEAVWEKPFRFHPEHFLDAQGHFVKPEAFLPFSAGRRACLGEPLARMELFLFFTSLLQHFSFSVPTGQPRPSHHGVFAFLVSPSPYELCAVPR
In a further series the target is Cytochrome P450 2C9 (Homo sapiens, UniProt P11712). The series is described as follows: Inhibition of CYP2C9 (unknown origin) by luciferase reporter assay in presence of NADPH regeneration system. The series is classed as ADME.
Cytochrome P450 2C9, sequence (P11712 whole entry): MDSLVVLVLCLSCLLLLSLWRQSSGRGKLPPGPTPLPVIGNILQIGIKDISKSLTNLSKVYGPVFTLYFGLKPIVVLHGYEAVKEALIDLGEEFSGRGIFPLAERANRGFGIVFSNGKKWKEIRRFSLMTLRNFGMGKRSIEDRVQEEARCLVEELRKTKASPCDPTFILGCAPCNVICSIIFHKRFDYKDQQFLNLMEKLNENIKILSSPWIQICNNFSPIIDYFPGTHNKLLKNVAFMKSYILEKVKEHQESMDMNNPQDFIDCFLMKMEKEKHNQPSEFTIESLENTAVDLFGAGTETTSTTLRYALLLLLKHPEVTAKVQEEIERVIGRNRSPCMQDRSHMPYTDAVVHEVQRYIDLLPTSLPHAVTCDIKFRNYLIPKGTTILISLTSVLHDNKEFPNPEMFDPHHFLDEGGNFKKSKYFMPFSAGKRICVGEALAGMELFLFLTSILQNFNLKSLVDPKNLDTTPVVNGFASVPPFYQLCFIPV
A further series has as its target Cytochrome P450 2C19 (Homo sapiens, UniProt P33261). Kind of series: Inhibition of CYP2C19 (unknown origin) by luciferase reporter assay in presence of NADPH regeneration system.
A further series concerns the target T1, Cytochrome P450 1A2 (Homo sapiens, UniProt P05177).
T1 sequence (P05177 whole entry): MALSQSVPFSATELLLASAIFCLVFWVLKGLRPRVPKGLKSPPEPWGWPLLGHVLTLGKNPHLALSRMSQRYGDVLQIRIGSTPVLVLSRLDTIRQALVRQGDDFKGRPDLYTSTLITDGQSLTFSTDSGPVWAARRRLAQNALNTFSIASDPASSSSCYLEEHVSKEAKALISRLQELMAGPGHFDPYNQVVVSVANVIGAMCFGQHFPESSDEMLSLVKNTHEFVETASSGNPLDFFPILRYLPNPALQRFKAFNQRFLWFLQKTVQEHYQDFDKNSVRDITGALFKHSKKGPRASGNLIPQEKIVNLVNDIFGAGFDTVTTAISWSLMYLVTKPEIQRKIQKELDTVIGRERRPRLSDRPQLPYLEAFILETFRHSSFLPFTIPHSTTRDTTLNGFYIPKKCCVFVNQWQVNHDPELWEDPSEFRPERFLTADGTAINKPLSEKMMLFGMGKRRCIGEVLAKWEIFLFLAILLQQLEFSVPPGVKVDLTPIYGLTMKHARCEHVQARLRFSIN
The series is described as follows: Inhibition of CYP1A2 (unknown origin) by luciferase reporter assay in presence of NADPH regeneration system. The series is classed as ADME.

The nature of series [22]: Half life in rat liver microsomes. Type of series: ADME.
Series [23] is described as follows: Half life in human liver microsomes. Type of series: ADME.
In series [24] the target is T2, Neuromedin-K receptor (Homo sapiens, UniProt P29371).
T2 sequence (P29371 whole entry): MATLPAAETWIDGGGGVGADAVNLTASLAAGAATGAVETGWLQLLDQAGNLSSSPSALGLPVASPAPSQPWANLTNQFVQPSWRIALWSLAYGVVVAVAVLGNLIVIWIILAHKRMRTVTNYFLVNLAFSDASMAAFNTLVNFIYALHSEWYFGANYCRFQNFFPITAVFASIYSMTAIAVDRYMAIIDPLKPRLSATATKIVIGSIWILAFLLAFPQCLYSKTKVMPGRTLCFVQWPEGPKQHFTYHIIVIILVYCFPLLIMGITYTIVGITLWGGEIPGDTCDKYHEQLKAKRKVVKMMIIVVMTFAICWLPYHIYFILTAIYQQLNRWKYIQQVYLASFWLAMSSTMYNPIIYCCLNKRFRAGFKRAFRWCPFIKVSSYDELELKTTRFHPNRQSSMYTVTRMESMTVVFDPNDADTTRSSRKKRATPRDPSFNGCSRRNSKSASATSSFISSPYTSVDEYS

Series [25] concerns the target T2, Neuromedin-K receptor. Kind of series: biochemical.
Description: Displacement of [3H]-SB222200 from recombinant human NK3R expressed in CHO cell membranes after 90 mins by scintillation counting analysis

SMILES strings stand for the structures. A value given as a limit tells only on which side of the number the result lay.

Cytochrome P450 2C19, sequence (P33261 whole entry): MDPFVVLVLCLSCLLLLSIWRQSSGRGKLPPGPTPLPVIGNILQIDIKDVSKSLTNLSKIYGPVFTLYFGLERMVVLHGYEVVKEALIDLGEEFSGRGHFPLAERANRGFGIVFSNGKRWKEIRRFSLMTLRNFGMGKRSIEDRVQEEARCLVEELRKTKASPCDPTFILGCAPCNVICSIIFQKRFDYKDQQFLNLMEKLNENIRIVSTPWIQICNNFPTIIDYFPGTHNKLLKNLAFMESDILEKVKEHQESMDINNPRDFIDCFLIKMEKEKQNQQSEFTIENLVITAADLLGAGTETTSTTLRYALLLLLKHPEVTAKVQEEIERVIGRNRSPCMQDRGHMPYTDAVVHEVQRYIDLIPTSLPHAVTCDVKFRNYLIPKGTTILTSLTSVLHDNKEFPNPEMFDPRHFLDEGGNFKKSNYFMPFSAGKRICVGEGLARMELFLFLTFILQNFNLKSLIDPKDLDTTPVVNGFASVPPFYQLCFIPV
Gastrin/cholecystokinin type B receptor (Homo sapiens), sequence (P32239 whole entry): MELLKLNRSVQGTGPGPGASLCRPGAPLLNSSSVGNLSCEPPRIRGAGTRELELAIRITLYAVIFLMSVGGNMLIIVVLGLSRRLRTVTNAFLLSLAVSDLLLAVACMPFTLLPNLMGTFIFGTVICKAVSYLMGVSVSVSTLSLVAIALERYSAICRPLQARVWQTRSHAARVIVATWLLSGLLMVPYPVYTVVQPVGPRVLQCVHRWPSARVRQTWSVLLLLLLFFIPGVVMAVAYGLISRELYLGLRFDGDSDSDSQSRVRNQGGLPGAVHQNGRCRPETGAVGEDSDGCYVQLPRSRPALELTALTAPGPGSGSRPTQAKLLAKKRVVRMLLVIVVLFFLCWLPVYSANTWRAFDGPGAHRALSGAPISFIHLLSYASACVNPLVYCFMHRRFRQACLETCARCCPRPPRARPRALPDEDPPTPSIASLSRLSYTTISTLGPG
Prostaglandin E2 receptor EP4 subtype (Homo sapiens), sequence (P35408 whole entry): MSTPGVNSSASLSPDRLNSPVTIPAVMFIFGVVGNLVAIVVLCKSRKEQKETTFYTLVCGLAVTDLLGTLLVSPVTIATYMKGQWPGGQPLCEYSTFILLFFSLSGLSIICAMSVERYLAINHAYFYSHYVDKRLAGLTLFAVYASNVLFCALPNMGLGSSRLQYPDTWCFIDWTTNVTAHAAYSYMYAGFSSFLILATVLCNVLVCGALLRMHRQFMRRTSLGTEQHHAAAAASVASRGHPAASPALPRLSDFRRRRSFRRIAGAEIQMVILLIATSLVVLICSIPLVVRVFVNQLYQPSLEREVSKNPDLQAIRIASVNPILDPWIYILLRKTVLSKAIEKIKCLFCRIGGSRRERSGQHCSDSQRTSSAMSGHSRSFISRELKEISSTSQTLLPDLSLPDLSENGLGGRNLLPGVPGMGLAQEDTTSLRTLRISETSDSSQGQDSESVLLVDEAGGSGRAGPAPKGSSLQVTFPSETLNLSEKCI
Translocator protein (Homo sapiens), sequence (P30536 whole entry): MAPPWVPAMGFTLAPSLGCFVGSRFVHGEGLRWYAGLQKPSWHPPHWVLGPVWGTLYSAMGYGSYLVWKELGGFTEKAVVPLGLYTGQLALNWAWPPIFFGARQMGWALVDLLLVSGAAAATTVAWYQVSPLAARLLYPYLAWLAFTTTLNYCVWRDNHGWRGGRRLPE

With `CC(C)NCC(O)COc1cccc2ccccc12` (stereo not drawn) [PROPRANOLOL], the Papp A→B in series [1] is at least 45 ×10⁻⁶ cm/s. Also, in series [2], the Papp B→A is at least 45 ×10⁻⁶ cm/s. For the same compound, the Ratio in series [3] turned out to be 1.
`CC[C@H](NC(=O)c1c(O)c(-c2ccccc2)nc2ccccc12)c1ccccc1` [TALNETANT]: the inhibition is 12% in series [4]; over 60% in series [5]; over 60% in series [6]; over 60% in [7]; over 60% in [8]; over 60% in series [9]. Moreover, the fraction unbound at 4 h, 5 µM in series [10] was found to be 0.0003; in series [15], 0.01. Besides, the Papp A→B in series [1] was 87.2 ×10⁻⁶ cm/s. Besides, the Papp B→A in series [2] is 98.5 ×10⁻⁶ cm/s. Moreover, in [11], the clearance was found to be 2 mL/min/kg. For the same compound, the fAUC with Rattus norvegicus [12] was determined as 0.5 µM·min; with Rattus norvegicus [13] it was 0.7 µM·min. The compound further showed a fCmax in the series with Rattus norvegicus [14] of 2.65 nM. In the series “in vivo [16]”, the volume of distribution (Vd) worked out at 1.5 L/kg. In the series “in vivo [17]”, this compound yielded a half-life of 7.47 h. In “in vivo [18]”, the Tmax is 1 h. In addition, in “in vivo [19]”, the bioavailability is 47%.
As to `O=C(c1ccc(F)cc1)N1CCn2c(nnc2-c2ccccn2)C1`, the logD in series [20] was found to be 1.1. This compound also displayed a solubility (thermodynamic) in series [21] of at least 200 µM. The IC50 is over 100 µM on Cytochrome P450 3A4; 15 µM on Cytochrome P450 2D6; 66 µM at Cytochrome P450 2C9; 14 µM at Cytochrome P450 2C19; 27 µM on Cytochrome P450 1A2; 4 µM at Neuromedin-K receptor [24]. The half-life in [22] and in series [23] was over 4 h throughout. In “in vivo [19]”, the bioavailability was determined as 108%. Besides, at Neuromedin-K receptor [25], affinity was put at a Ki of 4.5 µM.
